{
  "source": "paper PMC3559838",
  "about": "(PLoS ONE, 2013)",
  "key": {"[1]": {"molecular_target": "T1, UGT1A3 (Homo sapiens, UniProt P35503)", "T1 construct": "purchased BD Gentest", "T1 sequence (P35503 29-534)": "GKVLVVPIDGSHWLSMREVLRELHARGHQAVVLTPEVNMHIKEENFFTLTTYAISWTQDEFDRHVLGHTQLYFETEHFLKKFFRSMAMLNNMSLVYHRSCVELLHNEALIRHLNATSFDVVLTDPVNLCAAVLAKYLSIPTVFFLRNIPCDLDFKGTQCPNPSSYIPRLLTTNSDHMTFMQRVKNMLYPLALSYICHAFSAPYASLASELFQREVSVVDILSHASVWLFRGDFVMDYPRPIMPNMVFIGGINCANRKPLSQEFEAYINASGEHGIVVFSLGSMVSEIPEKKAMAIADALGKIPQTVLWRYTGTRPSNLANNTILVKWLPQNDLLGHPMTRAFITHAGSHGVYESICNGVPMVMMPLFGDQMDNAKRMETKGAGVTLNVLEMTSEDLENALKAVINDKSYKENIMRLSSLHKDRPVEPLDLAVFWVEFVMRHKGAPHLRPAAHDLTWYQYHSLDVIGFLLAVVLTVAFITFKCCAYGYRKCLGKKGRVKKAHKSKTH", "assay": "UGT supersome screening", "format": "in vitro ADME", "conditions": "UGT1A3 supersomes, 10 µM belinostat, 37°C", "description": "(§1) A typical incubation consisted of 50 µg of UGT, 2 mM UDPGA (UGT Reaction Solution A), 50 mM Tris-HCl, 8 mM MgCl2 and 0.025 mg/ml alamethicin (UGT Reaction Solution B) in a final incubation volume of 100 µL. Before the addition of substrate, the incubation mixture was prewarmed and equilibrated for 5 min at 37°C. […] The incubation mixture was vortexed and centrifuged (10,060 g) at 4°C for 10 min, and the supernatants were analyzed. Insect microsomes without UGT cDNA served as negative control. […] Incubations were performed as described above. Three independent experiments were performed for kinetic analysis."}, "[2]": {"molecular_target": "T2, UGT1A8 (Homo sapiens, UniProt Q9HAW9)", "T2 construct": "purchased BD Gentest", "T2 sequence (Q9HAW9 26-530)": "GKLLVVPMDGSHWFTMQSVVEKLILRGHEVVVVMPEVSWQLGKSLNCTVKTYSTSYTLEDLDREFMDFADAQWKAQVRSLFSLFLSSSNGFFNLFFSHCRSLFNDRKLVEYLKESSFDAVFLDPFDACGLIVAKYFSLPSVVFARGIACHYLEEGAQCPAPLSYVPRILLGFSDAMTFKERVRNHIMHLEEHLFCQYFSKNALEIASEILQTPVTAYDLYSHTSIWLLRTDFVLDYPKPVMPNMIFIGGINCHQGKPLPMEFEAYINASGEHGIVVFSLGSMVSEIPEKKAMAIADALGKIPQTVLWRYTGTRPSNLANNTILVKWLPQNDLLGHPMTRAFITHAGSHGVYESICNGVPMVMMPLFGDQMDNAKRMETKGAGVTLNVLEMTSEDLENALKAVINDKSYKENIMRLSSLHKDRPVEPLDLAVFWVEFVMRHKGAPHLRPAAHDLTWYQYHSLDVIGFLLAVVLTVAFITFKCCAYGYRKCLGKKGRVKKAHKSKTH", "assay": "UGT supersome screening", "format": "in vitro ADME", "conditions": "UGT1A8 supersomes, 10 µM belinostat, 37°C", "description": "as §1"}, "[3]": {"molecular_target": "T3, UGT2B4 (Homo sapiens, UniProt P06133)", "T3 construct": "purchased BD Gentest", "T3 sequence (P06133 24-528)": "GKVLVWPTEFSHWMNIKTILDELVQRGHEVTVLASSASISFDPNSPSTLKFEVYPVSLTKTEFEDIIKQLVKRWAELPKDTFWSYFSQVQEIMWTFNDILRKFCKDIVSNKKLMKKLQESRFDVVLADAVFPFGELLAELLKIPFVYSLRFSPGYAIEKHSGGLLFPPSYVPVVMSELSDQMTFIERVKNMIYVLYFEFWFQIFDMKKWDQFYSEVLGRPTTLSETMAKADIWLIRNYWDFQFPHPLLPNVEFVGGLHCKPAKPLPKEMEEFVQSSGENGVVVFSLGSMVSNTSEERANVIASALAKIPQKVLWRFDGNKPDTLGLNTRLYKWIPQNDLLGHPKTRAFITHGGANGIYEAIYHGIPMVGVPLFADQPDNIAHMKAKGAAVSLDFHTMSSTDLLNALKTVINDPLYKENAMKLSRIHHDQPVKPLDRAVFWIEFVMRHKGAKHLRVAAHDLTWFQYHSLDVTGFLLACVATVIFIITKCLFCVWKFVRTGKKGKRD", "assay": "UGT supersome screening", "format": "in vitro ADME", "conditions": "UGT2B4 supersomes, 10 µM belinostat, 37°C", "description": "as §1"}, "[4]": {"molecular_target": "T4, UGT2B7 (Homo sapiens, UniProt P16662)", "T4 construct": "purchased BD Gentest", "T4 sequence (P16662 24-529)": "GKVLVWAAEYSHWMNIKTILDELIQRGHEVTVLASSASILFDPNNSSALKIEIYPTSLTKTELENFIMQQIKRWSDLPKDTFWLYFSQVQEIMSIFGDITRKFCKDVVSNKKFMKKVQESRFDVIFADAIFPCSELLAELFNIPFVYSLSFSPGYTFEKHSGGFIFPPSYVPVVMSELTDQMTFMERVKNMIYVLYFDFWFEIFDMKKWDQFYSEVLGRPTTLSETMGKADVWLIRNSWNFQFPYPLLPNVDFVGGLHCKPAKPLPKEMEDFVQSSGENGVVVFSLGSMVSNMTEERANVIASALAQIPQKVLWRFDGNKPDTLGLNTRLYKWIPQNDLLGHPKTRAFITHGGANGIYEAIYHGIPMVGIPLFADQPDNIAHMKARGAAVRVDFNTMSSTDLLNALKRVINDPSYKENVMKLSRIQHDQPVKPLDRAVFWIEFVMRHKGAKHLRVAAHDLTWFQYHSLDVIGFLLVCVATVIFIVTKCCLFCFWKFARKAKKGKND", "assay": "UGT supersome screening", "format": "in vitro ADME", "conditions": "UGT2B7 supersomes, 10 µM belinostat, 37°C", "description": "as §1"}, "[5]": {"set-up": "method as in Investigator's Brochure, 2004", "conditions": "dogs, ref Investigator's Brochure, 2004, cited from earlier work"}, "[6]": {"set-up": "method as in Investigator's Brochure, 2004", "conditions": "rats, 100 mg/kg/day, both formulations; ref Investigator's Brochure, 2004; cited from earlier work"}, "[7]": {"system": "CYP2C9", "set-up": "method as in protocol pharmaceutical information", "conditions": "ref protocol pharmaceutical information; cited from earlier work"}},
  "data": [
    {"smiles": "O=C(/C=C/c1cccc(S(=O)(=O)Nc2ccccc2)c1)NO", "note": "[Belinostat, N-hydroxy-3-(phenylsulphamoylphenyl) acrylamide]", "values": [
      {"measurement": "metabolism by UGT isoform", "setting": "[1]", "value": "less than 3%"},
      {"measurement": "metabolism by UGT isoform", "setting": "[2]", "value": "less than 3%"},
      {"measurement": "metabolism by UGT isoform", "setting": "[3]", "value": "less than 3%"},
      {"measurement": "metabolism by UGT isoform", "setting": "[4]", "value": "less than 3%"},
      {"measurement": "increases in the rate of respiration", "setting": "[5]; 15 mg/kg and 35 mg/kg", "value": "not significantly different"},
      {"measurement": "heart rate", "setting": "[5]; high dose (35 mg/kg)", "value": "small transient increase in heart rate"},
      {"measurement": "electrocardiogram waveform changes (decrease in RR, PR and QT intervals)", "setting": "[5]", "value": "not substantially different from the control group"},
      {"measurement": "systemic effects", "setting": "[6]", "value": "mild"},
      {"measurement": "CYP2C9 inhibition", "setting": "[7]", "value": "weak to moderate inhibitor"}
    ]}
  ]
}
